# Measurements from US20240254118A1, “PRMT5 INHIBITORS AND USES THEREOF” (Gilead Sciences, Inc., priority 2022, published 2024).
# Key:
# [1] = test system: SDMA signal (PRMT5 inhibition) in HCT116 MTAP-deleted cells; experiment: Symmetric di-methyl arginine image-based high content screen assay (SDMA assay), HCT116 MTAP-deleted; assay type: cell-based; settings: SDMA assay; for EC50: Homo sapiens, HCT-116, 72 h, 3 days of treatment, cell line not given, taken as HCT116 MTAP-deleted, read-out: EC50 (SDMA assay); for EC50 selectivity (SDMA assay): taken as HCT116 WT versus MTAP-deleted
# How it was run: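 HCT116 MTAP-deleted cells treated with compound until Day 3, then formalin-fixed, permeabilized and immunostained for SDMA, with DAPI nuclear counterstain. Imaged by high-content microscopy; SDMA read-out is mean Alexa 488 intensity per DAPI-defined cell, reflecting PRMT5 inhibition.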
# [2] = test system: HCT116 MTAP-deleted cells; experiment: Cell viability assay (CellTiter-Glo, 7 days), HCT116 MTAP-deleted; settings: Homo sapiens, HCT-116, 168 h
EC50 [1] [nM],EC50 selectivity (SDMA assay) [1],Compound,CC50 [2] [nM]
1 to 5,549,"CC(=O)N(C)N(Cc1ccc2scnc2c1)C(=O)c1ccc2nc(N)c3cnn(C)c3c2c1 [Example 327, N′-acetyl-4-amino-N-(benzo[d]thiazol-5-ylmethyl)-N′,1-dimethyl-1H-pyrazolo[4,3-c]quinoline-8-carbohydrazide]",< 100
1 to 5,143,"CC(=O)N(C)N(Cc1ccc2scnc2c1)C(=O)c1cc2c(cc1F)nc(N)c1cnn(C)c12 [Example 328, N′-acetyl-4-amino-N-(benzo[d]thiazol-5-ylmethyl)-7-fluoro-N′,1-dimethyl-1H-pyrazolo[4,3-c]quinoline-8-carbohydrazide]",< 100
< 1,134,"CC(=O)N(C)N(Cc1ccc(Cl)cc1Cl)C(=O)c1ccc2nc(N)c3cnn(C)c3c2c1 [Example 329, N′-acetyl-4-amino-N-(2,4-dichlorobenzyl)-N′,1-dimethyl-1H-pyrazolo[4,3-c]quinoline-8-carbohydrazide]",< 100
< 1,225,"Cn1ncc2c(N)nc3ccc(C(=O)N(Cc4ccc(C(F)(F)F)cn4)NC(=O)OC4CCC4)cc3c21 [Example 330, cyclobutyl 2-(4-amino-1-methyl-1H-pyrazolo[4,3-c]quinoline-8-carbonyl)-2-((5-(trifluoromethyl)pyridin-2-yl)methyl)hydrazine-1-carboxylate]",< 100
< 1,37,"Cn1ncc2c(N)nc3cc(F)c(C(=O)N(Cc4ccc(C(F)(F)F)cn4)NC(=O)OC4CCC4)cc3c21 [Example 331, cyclobutyl 2-(4-amino-7-fluoro-1-methyl-1H-pyrazolo[4,3-c]quinoline-8-carbonyl)-2-((5-(trifluoromethyl)pyridin-2-yl)methyl)hydrazine-1-carboxylate]",< 100
< 1,308,"Cn1ncc2c(N)nc3ccc(C(=O)N(Cc4ccc(C(F)(F)F)cn4)NC(=O)C45CC(C4)C5)cc3c21 [Example 332, 4-amino-N′-(bicyclo[1.1.1]pentane-1-carbonyl)-1-methyl-N-((5-(trifluoromethyl)pyridin-2-yl)methyl)-1H-pyrazolo[4,3-c]quinoline-8-carbohydrazide]",< 100
< 1,317,"Cn1ncc2c(N)nc3cc(F)c(C(=O)N(Cc4ccc(C(F)(F)F)cn4)NC(=O)C45CC(C4)C5)cc3c21 [Example 333, 4-amino-N′-(bicyclo[1.1.1]pentane-1-carbonyl)-7-fluoro-1-methyl-N-((5-(trifluoromethyl)pyridin-2-yl)methyl)-1H-pyrazolo[4,3-c]quinoline-8-carbohydrazide]",< 100
1 to 5,178,"CC(=O)N(C)N(Cc1ccc2oc(C)nc2c1)C(=O)c1ccc2nc(N)c3cnn(C)c3c2c1 [Example 334, N′-acetyl-4-amino-N′,1-dimethyl-N-((2-methylbenzo[d]oxazol-5-yl)methyl)-1H-pyrazolo[4,3-c]quinoline-8-carbohydrazide]",100 to 1000
1 to 5,272,"CC(=O)N(C)N(Cc1ccc2nc(C)oc2c1)C(=O)c1ccc2nc(N)c3cnn(C)c3c2c1 [Example 335, N′-acetyl-4-amino-N′,1-dimethyl-N-((2-methylbenzo[d]oxazol-6-yl)methyl)-1H-pyrazolo[4,3-c]quinoline-8-carbohydrazide]",< 100
1 to 5,67,"CC(=O)N(C)N(Cc1ccc2nc(C(F)(F)F)sc2c1)C(=O)c1ccc2nc(N)c3cnn(C)c3c2c1 [Example 337, N′-acetyl-4-amino-N′,1-dimethyl-N-((2-(trifluoromethyl)benzo[d]thiazol-6-yl)methyl)-1H-pyrazolo[4,3-c]quinoline-8-carbohydrazide]",< 100
< 1,373,"CN(C(=O)C12CC(C1)C2)N(Cc1ccc2ncsc2c1)C(=O)c1ccc2nc(N)c3cnn(C)c3c2c1 [Example 338, 4-amino-N-(benzo[d]thiazol-6-ylmethyl)-N′-(bicyclo[1.1.1]pentane-1-carbonyl)-N′,1-dimethyl-1H-pyrazolo[4,3-c]quinoline-8-carbohydrazideide]",< 100
1 to 5,280,"CN(C(=O)C1(C(F)F)CC1)N(Cc1ccc(C(F)(F)F)cn1)C(=O)c1ccc2nc(N)c3cnn(C)c3c2c1 [Example 339, 4-amino-N′-(1-(difluoromethyl)cyclopropane-1-carbonyl)-N′,1-dimethyl-N-((5-(trifluoromethyl)pyridin-2-yl)methyl)-1H-pyrazolo[4,3-c]quinoline-8-carbohydrazide]",100 to 1000
< 1,50,"CC(=O)N(C1COC1)N(Cc1ccc(C(F)(F)F)cc1F)C(=O)c1ccc2nc(N)c3cnn(C)c3c2c1 [Example 340, N′-acetyl-4-amino-N-(2-fluoro-4-(trifluoromethyl)benzyl)-1-methyl-N′-(oxetan-3-yl)-1H-pyrazolo[4,3-c]quinoline-8-carbohydrazide]",< 100
1 to 5,188,"CC(=O)N(CC1CC1)N(Cc1ccc(C(F)(F)F)cn1)C(=O)c1ccc2nc(N)c3cnn(C)c3c2c1 [Example 341, N′-acetyl-4-amino-N′-(cyclopropylmethyl)-1-methyl-N-((5-(trifluoromethyl)pyridin-2-yl)methyl)-1H-pyrazolo[4,3-c]quinoline-8-carbohydrazide]",< 100
1 to 5,30,"CN(C(=O)C(F)(F)C1CC1)N(Cc1ccc(C(F)(F)F)cn1)C(=O)c1ccc2nc(N)c3cnn(C)c3c2c1 [Example 342, 4-amino-N′-(2-cyclopropyl-2,2-difluoroacetyl)-N′,1-dimethyl-N-((5-(trifluoromethyl)pyridin-2-yl)methyl)-1H-pyrazolo[4,3-c]quinoline-8-carbohydrazide]",< 100
< 1,96,"CN(C(=O)C1CC1)N(Cc1ccc(C(F)(F)F)cc1)C(=O)c1ccc2nc(N)c3cnn(C)c3c2c1 [Example 343, 4-amino-N′-(cyclopropanecarbonyl)-N′,1-dimethyl-N-(4-(trifluoromethyl)benzyl)-1H-pyrazolo[4,3-c]quinoline-8-carbohydrazide]",< 100
< 1,48,"CN(C(=O)C1CC1)N(Cc1ccc(C(F)(F)F)cc1F)C(=O)c1ccc2nc(N)c3cnn(C)c3c2c1 [Example 344, 4-amino-N′-(cyclopropanecarbonyl)-N-(2-fluoro-4-(trifluoromethyl)benzyl)-N′,1-dimethyl-1H-pyrazolo[4,3-c]quinoline-8-carbohydrazide]",< 100
< 1,13,"Cn1ncc2c(N)nc3ccc(C(=O)N(NC(=O)C4CC4)C4COc5cc(C(F)(F)F)ccc54)cc3c21 (stereo not drawn) [Example 349, 4-amino-N′-(cyclopropanecarbonyl)-1-methyl-N-(6-(trifluoromethyl)-2,3-dihydrobenzofuran-3-yl)-1H-pyrazolo[4,3-c]quinoline-8-carbohydrazide]",< 100
< 1,42,"CCOC(=O)NN(C(=O)c1ccc2nc(N)c3cnn(C)c3c2c1)C1COc2cc(C(F)(F)F)ccc21 (stereo not drawn) [Example 350, ethyl 2-(4-amino-1-methyl-1H-pyrazolo[4,3-c]quinoline-8-carbonyl)-2-(6-(trifluoromethyl)-2,3-dihydrobenzofuran-3-yl)hydrazine-1-carboxylate]",< 100
1 to 5,33,"CC(=O)N(C)N(Cc1ccc(C(F)(F)F)c(F)c1)C(=O)c1ccc2nc(N)c3cnn(C)c3c2c1 [Example 351, N′-acetyl-4-amino-N-(3-fluoro-4-(trifluoromethyl)benzyl)-N′,1-dimethyl-1H-pyrazolo[4,3-c]quinoline-8-carbohydrazide]",< 100
< 1,320,"Cn1ncc2c(N)nc3ccc(C(=O)N(Cc4ccc(C(F)(F)F)cn4)N4CC(F)(F)C4)cc3c21 [Example 359, 4-amino-N-(3,3-difluoroazetidin-1-yl)-1-methyl-N-((5-(trifluoromethyl)pyridin-2-yl)methyl)-1H-pyrazolo[4,3-c]quinoline-8-carboxamide]",< 100

Compound,EC50 [1] [nM],EC50 selectivity (SDMA assay) [1],CC50 [2] [nM]
"Cn1ncc2c(N)nc3ccc(C(=O)N(Cc4ccc(C(F)(F)F)cn4)N4CCC5(CC5)OC4=O)cc3c21 [Example 336, 4-amino-1-methyl-N-(5-oxo-4-oxa-6-azaspiro[2.5]octan-6-yl)-N-((5-(trifluoromethyl)pyridin-2-yl)methyl)-1H-pyrazolo[4,3-c]quinoline-8-carboxamide]",1 to 5,94,< 100
"Cn1ncc2c(N)nc3ccc(C(=O)N(Cc4ccc(C(F)(F)F)cn4)N4CC5(CC(F)(F)C5)OC4=O)cc3c21 [Example 345, 4-amino-N-(2,2-difluoro-6-oxo-5-oxa-7-azaspiro[3.4]octan-7-yl)-1-methyl-N-((5-(trifluoromethyl)pyridin-2-yl)methyl)-1H-pyrazolo[4,3-c]quinoline-8-carboxamide]",1 to 5,152,100 to 1000
